Species on record: Rattus norvegicus
Experiment: Open TG-GATES - Regimen: Daily Repeat
Assay type: toxicity, organism-based, Sprague-Dawley
Parameters: regimen Daily Repeat, gender Male, age 6 weeks
Conditions: in vivo, po, route gavage; for APTT / Bas / Eos / Fbg / Ht / Lym / MCHC / MCV / Mono / PT / Plat / RBC / Ret / WBC: tissue Blood; for KIDNEY_L / KIDNEY_R / KIDNEY_TOTAL: tissue Kidney; for LIVER: tissue Liver; for ALP / ALT / AST / BUN / CRE / Ca / Cl / DBIL / IP / LDH / Na / PL / RALB / TBIL / TC / TG / TP / gamma-GTP: tissue Plasma
[1] = 120 mg/kg, 72 h, dose level Middle, time 3 day
[2] = 120 mg/kg, […], dose level Middle, time 7 day
[3] = 120 mg/kg, […], dose level Middle, time 14 day
[4] = 120 mg/kg, […], dose level Middle, time 28 day
[5] = 400 mg/kg, 72 h, dose level High, time 3 day
[6] = 400 mg/kg, […], dose level High, time 7 day
[7] = 400 mg/kg, […], dose level High, time 14 day
[8] = 400 mg/kg, […], dose level High, time 28 day

Structure (SMILES): CC(C)N(CCC(C(N)=O)(c1ccccc1)c1ccccn1)C(C)C (stereo not given) [DISOPYRAMIDE]
- APTT [1]: 20.4 s
- Bas [1]: 0%
- Eos [1]: 1%
- Fbg [1]: 319.6 mg/dL
- Ht [1]: 41.1%
- Lym [1]: 78.4%
- MCHC [1]: 32.2%
- MCV [1]: 62.6 fL
- Mono [1]: 2.6%
- PT [1]: 15.5 s
- Plat [1]: 125 x10_4/uL
- RBC [1]: 657.8 x10_4/ul
- Ret [1]: 5.3%
- WBC [1]: 107.5 x10_2/uL
- KIDNEY_L [1]: 1 g
- KIDNEY_R [1]: 1 g
- KIDNEY_TOTAL [1]: 2 g
- LIVER [1]: 10.6 g
- ALP [1]: 1634.4 IU/L
- ALT [1]: 52.4 IU/L
- AST [1]: 74 IU/L
- BUN [1]: 15.6 mg/dL
- CRE [1]: 0.2 mg/dL
- Ca [1]: 10.8 mg/dL
- Cl [1]: 106.6 meq/L
- DBIL [1]: 0 mg/dL
- IP [1]: 7.7 mg/dL
- LDH [1]: 174.6 IU/L
- Na [1]: 142.8 meq/L
- PL [1]: 151.2 mg/dL
- RALB [1]: 2.9 g/dL
- TBIL [1]: 0 mg/dL
- TC [1]: 79.2 mg/dL
- TG [1]: 111.8 mg/dL
- TP [1]: 5.4 g/dL
- gamma-GTP [1]: 1.6 IU/L
- TERMINAL_BW [2]: 247.4 g
- TERMINAL_BW [3]: 313.2 g
- TERMINAL_BW [4]: 369.7 g
- APTT [2]: 21.5 s
- Bas [2]: 0%
- Eos [2]: 1%
- Fbg [2]: 327.2 mg/dL
- Ht [2]: 41%
- Lym [2]: 82%
- MCHC [2]: 32.6%
- MCV [2]: 59.6 fL
- Mono [2]: 1.8%
- PT [2]: 15.8 s
- Plat [2]: 116.6 x10_4/uL
- RBC [2]: 688.8 x10_4/ul
- Ret [2]: 5.7%
- WBC [2]: 102 x10_2/uL
- APTT [3]: 23.1 s
- Bas [3]: 0%
- Eos [3]: 0.8%
- Fbg [3]: 331.4 mg/dL
- Ht [3]: 41.2%
- Lym [3]: 79.8%
- MCHC [3]: 32.5%
- MCV [3]: 58.9 fL
- Mono [3]: 2.4%
- PT [3]: 15.5 s
- Plat [3]: 117.3 x10_4/uL
- RBC [3]: 700.2 x10_4/ul
- Ret [3]: 4.5%
- WBC [3]: 125.1 x10_2/uL
- APTT [4]: 24.7 s
- Bas [4]: 0%
- Eos [4]: 1%
- Fbg [4]: 323.2 mg/dL
- Ht [4]: 42.5%
- Lym [4]: 79.2%
- MCHC [4]: 33.7%
- MCV [4]: 55.5 fL
- Mono [4]: 2.4%
- PT [4]: 15.2 s
- Plat [4]: 103.8 x10_4/uL
- RBC [4]: 768.2 x10_4/ul
- Ret [4]: 2.6%
- WBC [4]: 105.7 x10_2/uL
- KIDNEY_L [2]: 1.1 g
- KIDNEY_R [2]: 1.1 g
- KIDNEY_TOTAL [2]: 2.2 g
- KIDNEY_L [3]: 1.2 g
- KIDNEY_R [3]: 1.3 g
- KIDNEY_TOTAL [3]: 2.5 g
- KIDNEY_L [4]: 1.4 g
- KIDNEY_R [4]: 1.5 g
- KIDNEY_TOTAL [4]: 2.9 g
- LIVER [2]: 11.4 g
- LIVER [3]: 14.2 g
- LIVER [4]: 15.6 g
- ALP [2]: 1449.8 IU/L
- ALT [2]: 48.2 IU/L
- AST [2]: 77.4 IU/L
- BUN [2]: 16.4 mg/dL
- CRE [2]: 0.2 mg/dL
- Ca [2]: 10.6 mg/dL
- Cl [2]: 106.2 meq/L
- DBIL [2]: 0 mg/dL
- IP [2]: 7.5 mg/dL
- LDH [2]: 167.8 IU/L
- Na [2]: 141.6 meq/L
- PL [2]: 145 mg/dL
- RALB [2]: 3 g/dL
- TBIL [2]: 0 mg/dL
- TC [2]: 75.8 mg/dL
- TG [2]: 107.8 mg/dL
- TP [2]: 5.5 g/dL
- gamma-GTP [2]: 1.4 IU/L
- ALP [3]: 1779.4 IU/L
- ALT [3]: 41.4 IU/L
- AST [3]: 64.8 IU/L
- BUN [3]: 15.6 mg/dL
- CRE [3]: 0.1 mg/dL
- Ca [3]: 10.6 mg/dL
- Cl [3]: 105.6 meq/L
- DBIL [3]: 0 mg/dL
- IP [3]: 7.1 mg/dL
- LDH [3]: 139.4 IU/L
- Na [3]: 142.6 meq/L
- PL [3]: 146.6 mg/dL
- RALB [3]: 3.1 g/dL
- TBIL [3]: 0.004 mg/dL
- TC [3]: 66 mg/dL
- TG [3]: 194 mg/dL
- TP [3]: 5.8 g/dL
- gamma-GTP [3]: 2 IU/L
- ALP [4]: 1162.8 IU/L
- ALT [4]: 55 IU/L
- AST [4]: 85.2 IU/L
- BUN [4]: 17 mg/dL
- CRE [4]: 0.2 mg/dL
- Ca [4]: 10.7 mg/dL
- Cl [4]: 106.4 meq/L
- DBIL [4]: 0 mg/dL
- IP [4]: 6.7 mg/dL
- LDH [4]: 190.2 IU/L
- Na [4]: 140.6 meq/L
- PL [4]: 151 mg/dL
- RALB [4]: 2.9 g/dL
- TBIL [4]: 0.012 mg/dL
- TC [4]: 79.6 mg/dL
- TG [4]: 112.4 mg/dL
- TP [4]: 5.9 g/dL
- gamma-GTP [4]: 2.2 IU/L
- TERMINAL_BW [5]: 214.9 g
- APTT [5]: 22.4 s
- Bas [5]: 0%
- Eos [5]: 0.8%
- Fbg [5]: 351.2 mg/dL
- Ht [5]: 42.4%
- Lym [5]: 73.2%
- MCHC [5]: 32.4%
- MCV [5]: 62.3 fL
- Mono [5]: 2%
- PT [5]: 15.6 s
- Plat [5]: 129.4 x10_4/uL
- RBC [5]: 681.2 x10_4/ul
- Ret [5]: 3.3%
- WBC [5]: 80.5 x10_2/uL
- KIDNEY_L [5]: 0.9 g
- KIDNEY_R [5]: 1 g
- KIDNEY_TOTAL [5]: 1.9 g
- LIVER [5]: 9.5 g
- ALP [5]: 1597.6 IU/L
- ALT [5]: 40.4 IU/L
- AST [5]: 70.2 IU/L
- BUN [5]: 12.8 mg/dL
- CRE [5]: 0.2 mg/dL
- Ca [5]: 10.8 mg/dL
- Cl [5]: 107.2 meq/L
- DBIL [5]: 0 mg/dL
- IP [5]: 7.4 mg/dL
- LDH [5]: 182.6 IU/L
- Na [5]: 143 meq/L
- PL [5]: 137.8 mg/dL
- RALB [5]: 2.9 g/dL
- TBIL [5]: 0 mg/dL
- TC [5]: 74.4 mg/dL
- TG [5]: 83.6 mg/dL
- TP [5]: 5.5 g/dL
- gamma-GTP [5]: 1.4 IU/L
- TERMINAL_BW [6]: 229.8 g
- TERMINAL_BW [7]: 278.8 g
- TERMINAL_BW [8]: 316.5 g
- APTT [6]: 23.9 s
- Bas [6]: 0%
- Eos [6]: 1.2%
- Fbg [6]: 346.8 mg/dL
- Ht [6]: 41.6%
- Lym [6]: 74.4%
- MCHC [6]: 33.3%
- MCV [6]: 60.2 fL
- Mono [6]: 3%
- PT [6]: 15.7 s
- Plat [6]: 112.7 x10_4/uL
- RBC [6]: 691.2 x10_4/ul
- Ret [6]: 4.2%
- WBC [6]: 123.8 x10_2/uL
- APTT [7]: 25.3 s
- Bas [7]: 0%
- Eos [7]: 1%
- Fbg [7]: 316.4 mg/dL
- Ht [7]: 41.7%
- Lym [7]: 79.4%
- MCHC [7]: 32.7%
- MCV [7]: 58.7 fL
- Mono [7]: 1.8%
- PT [7]: 15.2 s
- Plat [7]: 102.3 x10_4/uL
- RBC [7]: 710.4 x10_4/ul
- Ret [7]: 4.4%
- WBC [7]: 103 x10_2/uL
- APTT [8]: 26 s
- Bas [8]: 0%
- Eos [8]: 1.2%
- Fbg [8]: 345.5 mg/dL
- Ht [8]: 44.9%
- Lym [8]: 79%
- MCHC [8]: 33.7%
- MCV [8]: 55.6 fL
- Mono [8]: 2.5%
- PT [8]: 15.3 s
- Plat [8]: 98.6 x10_4/uL
- RBC [8]: 808.8 x10_4/ul
- Ret [8]: 2.4%
- WBC [8]: 105 x10_2/uL
- KIDNEY_L [6]: 1 g
- KIDNEY_R [6]: 1 g
- KIDNEY_TOTAL [6]: 2 g
- KIDNEY_L [7]: 1.1 g
- KIDNEY_R [7]: 1.2 g
- KIDNEY_TOTAL [7]: 2.3 g
- KIDNEY_L [8]: 1.2 g
- KIDNEY_R [8]: 1.3 g
- KIDNEY_TOTAL [8]: 2.5 g
- LIVER [6]: 11 g
- LIVER [7]: 12.8 g
- LIVER [8]: 13.4 g
- ALP [6]: 1394 IU/L
- ALT [6]: 45 IU/L
- AST [6]: 67.2 IU/L
- BUN [6]: 14.8 mg/dL
- CRE [6]: 0.2 mg/dL
- Ca [6]: 10.8 mg/dL
- Cl [6]: 105.4 meq/L
- DBIL [6]: 0 mg/dL
- IP [6]: 8 mg/dL
- LDH [6]: 160.8 IU/L
- Na [6]: 141.6 meq/L
- PL [6]: 170.6 mg/dL
- RALB [6]: 2.9 g/dL
- TBIL [6]: 0 mg/dL
- TC [6]: 80.6 mg/dL
- TG [6]: 195.4 mg/dL
- TP [6]: 5.4 g/dL
- gamma-GTP [6]: 1.4 IU/L
- ALP [7]: 1544.2 IU/L
- ALT [7]: 44 IU/L
- AST [7]: 68 IU/L
- BUN [7]: 15.2 mg/dL
- CRE [7]: 0.1 mg/dL
- Ca [7]: 10.6 mg/dL
- Cl [7]: 104.2 meq/L
- DBIL [7]: 0 mg/dL
- IP [7]: 7.9 mg/dL
- LDH [7]: 149.6 IU/L
- Na [7]: 143.2 meq/L
- PL [7]: 149.6 mg/dL
- RALB [7]: 3 g/dL
- TBIL [7]: 0.002 mg/dL
- TC [7]: 74.4 mg/dL
- TG [7]: 147.2 mg/dL
- TP [7]: 5.6 g/dL
- gamma-GTP [7]: 1.6 IU/L
- ALP [8]: 1456 IU/L
- ALT [8]: 66 IU/L
- AST [8]: 98.2 IU/L
- BUN [8]: 17.5 mg/dL
- CRE [8]: 0.2 mg/dL
- Ca [8]: 10.4 mg/dL
- Cl [8]: 106 meq/L
- DBIL [8]: 0 mg/dL
- IP [8]: 6.6 mg/dL
- LDH [8]: 170.5 IU/L
- Na [8]: 141.2 meq/L
- PL [8]: 152.5 mg/dL
- RALB [8]: 3 g/dL
- TBIL [8]: 0 mg/dL
- TC [8]: 75.5 mg/dL
- TG [8]: 165.2 mg/dL
- TP [8]: 5.8 g/dL
- gamma-GTP [8]: 2 IU/L

— ChEMBL document CHEMBL3885861, “Open TG-GATES”
